From patent US6939948B1, “GD2 peptide mimics” (Health Research, Inc., priority 2002, dated 2005)
No end group written: not given here.

System: anti-GD2 ganglioside mAb 3F8
Assay: Inhibition assay: inhibition of binding of anti-GD2 mAb 3F8 to GD2 ganglioside bearing melanoma cells
Conditions: GD2 (+) human melanoma cells
Method: Peptide mimics of GD2 ganglioside can be isolated by panning phage display peptide libraries with anti-GD2 ganglioside such as mAbs 3F8, 5F11, and KM666 that recognize different epitopes on GD2 ganglioside. Anti-GD2 ganglioside mAbs can be used to isolate phage that display antibody reactive peptides. After phage panning, the binding ability of isolated phage colonies to anti-GD2 ganglioside mAbs is tested with immunoscreening and further confirmed by ELISA. Anti-GD2 antibody reactive phage clone and the same phage without displaying peptides, can be utilized as a positive and a negative controls respectively in the immunoscreening and ELISA. In the positive phage clones, the DNA inserts that encode the antibody reactive peptides can be sequenced. Peptides can be synthesized based on the sequences of the DNA inserts. The synthesized peptides are tested in ELISA to determine their binding reactivity with corresponding anti-GD2 ganglioside mAbs. […] The synthetic peptides that inhibit or block the binding of anti-GD2 ganglioside mAbs to GD2 ganglioside can be tested as active immunotherapy candidates.
The synthesized peptides were tested with reverse ELISA and inhibition assay with mAb 3F8. […] Peptide J51 contains HLA-B7 and HLA-DRB1 binding motifs.

Substance	inhibition of the binding of mAb 3F8 to GD2 ganglioside bearing melanoma cells
DCFRGDPYQPKWRLC (J51 peptide mimic for GD2) [Peptide J51, GD2 peptide mimic from PVIII X15 library]	inhibited the binding
cJ51: cyclic peptide J51, which mimics the structure of GD2 ganglioside (DCFRGDPYQPKWRLC; also: cyclic, cyclising bond not given here)	inhibit the binding
